{"source": "patent US20210177814A1", "about": "“USE OF GUANABENZ OR DERIVATES THEREOF FOR THE TREATMENT OF TYPE I IFN-DEPENDENT PATHOLOGIES” (INSERM (Institut National de la Santé et de la Recherche …, priority 2018, published 2021)", "molecular_target": "T1, TLR9 (Mus musculus, UniProt Q9EQU3)", "T1 construct": "from tissue; host or cells: whole animal: C57BL/6, FVB and FVB GADD34ΔC/ΔC mice", "T1 sequence (Q9EQU3 26-1032)": "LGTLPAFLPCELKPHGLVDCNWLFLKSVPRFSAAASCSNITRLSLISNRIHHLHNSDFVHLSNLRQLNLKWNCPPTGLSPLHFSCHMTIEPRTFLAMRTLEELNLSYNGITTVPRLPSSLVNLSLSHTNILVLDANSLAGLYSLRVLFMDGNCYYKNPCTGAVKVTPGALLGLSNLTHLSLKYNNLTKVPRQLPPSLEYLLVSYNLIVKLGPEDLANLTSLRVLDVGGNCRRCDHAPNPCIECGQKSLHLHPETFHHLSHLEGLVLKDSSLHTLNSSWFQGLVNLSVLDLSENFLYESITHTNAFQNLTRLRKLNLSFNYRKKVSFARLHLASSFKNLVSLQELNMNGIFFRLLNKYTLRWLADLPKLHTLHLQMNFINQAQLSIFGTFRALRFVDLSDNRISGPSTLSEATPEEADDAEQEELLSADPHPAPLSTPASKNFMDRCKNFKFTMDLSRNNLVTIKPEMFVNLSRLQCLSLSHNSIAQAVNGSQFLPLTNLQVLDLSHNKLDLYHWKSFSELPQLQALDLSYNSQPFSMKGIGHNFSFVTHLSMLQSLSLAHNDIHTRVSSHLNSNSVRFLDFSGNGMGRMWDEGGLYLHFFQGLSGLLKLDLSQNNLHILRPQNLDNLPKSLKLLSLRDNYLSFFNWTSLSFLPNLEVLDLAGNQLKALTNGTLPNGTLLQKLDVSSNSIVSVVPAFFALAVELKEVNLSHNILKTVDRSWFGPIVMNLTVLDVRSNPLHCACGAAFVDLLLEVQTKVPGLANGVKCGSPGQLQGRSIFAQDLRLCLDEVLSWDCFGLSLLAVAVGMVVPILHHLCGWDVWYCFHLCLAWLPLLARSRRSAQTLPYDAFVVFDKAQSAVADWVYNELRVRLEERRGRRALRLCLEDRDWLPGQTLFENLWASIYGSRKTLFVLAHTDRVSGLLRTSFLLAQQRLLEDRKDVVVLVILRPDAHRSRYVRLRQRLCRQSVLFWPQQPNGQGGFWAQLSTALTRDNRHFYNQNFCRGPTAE", "test": "D-galN/CpG ODN 1826 cytokine shock model", "format": "in vivo", "method": "WT and GADD34^ΔC/ΔC mice were injected with D-galN (20 mg/mouse), CpG ODN 1826 or PBS for control mice (50 μg/20 g), GBZ or clonidine (2 mg/kg). (A) Survival of C57/BL6 mice is represented as total percentage of survival after 48 h or in a Kaplan-Meier plot. (B) Survival of FVB (WT) and FVB GADD34^ΔC/ΔC mice is represented as total percentage of survival after 48 h or in a Kaplan-Meier plot. (C) The concentration of circulating TNF-α, IL-10 and IL-6 in C57/BL6 mice was measured after 1 h and/or 3 h of CpG ODN 1826. (D) Liver tissue damage and histology score were blindly determined by a professional anatomopathologist. Statistical significance was assigned on sample comparison by a one-way ANOVA, followed by Tukey range test and on the survival curve using log-rank test, followed by Benjamini-Yekutieli correction (* p<0.05; ** p<0.005; ***p<0.0005.).\nWild type female mice C57BL/6 of 8 weeks of age were injected i.p. with 2 mg/kg of GBZ, clonidine or PBS/DMSO. One hour later, they were injected i.p. with 20 mg/mouse of d-GalN and ODN 1826 50 μg/20 g (or PBS). Mice survival was checked every 12 hours for up to 48 hours. For some experiments, blood sera were collected 1 and 3 h after the injection of D-galN. The serum was used to measure circulating cytokines (TNFα, IL-6, IFNβ IL-10, IL-12). For some experiments, the liver was collected for immunohistochemistry after two days. For i.p. injections, 1 ml syringes and 25 gauge needles were used. Blood was collected from the cheek with a 18 gauge needle; for the TMPD model, no more than 200 μL were collected each time, respecting the ethic statement.\nMouse kidney and liver were fixed in 10% buffered formalin for 24 h, then the tissues were dehydrated and embedded in paraffin. Tissue sections of 3.5 μm were cut using the microtom Leica RM2245. Hematoxylin-eosin staining was effectuated automatically with Leica autostainer XL. Finally, the slides were mounted with entellan and kept at room temperature. Biopsies were analyzed by an anatomopathologist and the clinical score was assigned in a blinded way. Pictures were taken with Nikon Eclipse.\n• a) Lobular inflammation • 0—no inflammation, 1—mild lobular inflammation (<10% of liver parenchyma), 2—moderate lobular inflammation (10-50% of liver parenchyma), 3—severe lobular inflammation (>50% of liver parenchyma) • b) Portal inflammation • 0—no portal inflammation, 1—mild portal inflammation (<⅓ of portal tracts), 2—moderate portal inflammation (approximately 50% of portal tracks), 3—severe portal inflammation (>⅔ of portal tracts) • Portal and lobular inflammation score are added=inflammation score • c) Necrosis • 0—No necrosis, 1—<10% necrosis of liver parenchyma, 2—10-25% necrosis of liver parenchyma, 3—25% necrosis of liver parenchyma • Inflammation score and necrosis score are added=Total histologic score", "key": {"[1]": {"conditions": "WT mice, 1 hour after CpG injection, 2 mg/kg"}}}
{"smiles": "NC(N)=N/N=C/c1c(Cl)cccc1Cl", "note": "[GBZ, 2-(2,6-dichlorobenzylidene)-hydrazinecarboximidamide]", "values": [{"measurement": "survival after 48 h", "setting": "C57BL/6 WT mice, D-galN + CpG ODN 1826, compound 2 mg/kg i.p.", "value": "up to 70%"}, {"measurement": "liver cells survival (liver examination and histological scores)", "setting": "CpG-induced lethality, GBZ 2 mg/kg", "value": "little direct protective effect"}, {"measurement": "survival", "setting": "FVB GADD34ΔC/ΔC mice, D-galN + CpG, GBZ 2 mg/kg", "value": "protected from death"}, {"measurement": "decrease in efficiency of protection in GADD34ΔC/ΔC mice", "setting": "GADD34ΔC/ΔC vs WT mice, GBZ 2 mg/kg", "value": "~28", "unit": "%"}, {"measurement": "production of IL-10", "setting": "WT mice after CpG injection, GBZ 2 mg/kg", "value": "strongly increased"}, {"measurement": "circulating IL-6 plasma concentration", "setting": "[1]", "value": "strongly attenuated"}, {"measurement": "circulating TNF-α plasma concentration", "setting": "[1]", "value": "strongly attenuated"}]}
